Measured values as given in patent publication US11472778B2, “Hepatitis C virus NS3/4A protease inhibitors” (priority 2017, dated 2022).
Read-outs that look alike come from different tables or passages of the source.

Legend:
[1] = test system: HCV replicon D168V variant in Huh7 cells; assay: microbe, parasite or virus in culture; format: cell-based, Hepatitis C virus; conditions: for Replicon EC50 (Fold change) D168V: relative to WT
Outline: (§1)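 Protease variants were introduced by site-directed mutagenesis into a genotype 1b Con1 luciferase replicon containing genotype 1a H77 NS3. Each replicon RNA was electroporated into Huh7 cells. Inhibitor was titrated upward. Luminescence was measured after 96 h.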

[2] = test system: HCV replicon D168A variant in Huh7 cells; assay: microbe, parasite or virus in culture; format: cell-based, Hepatitis C virus; conditions: for EC50: Hepatitis C virus, Huh-7, read-out: Replicon EC50 (nM) D168A, Table 9; for Replicon EC50 (Fold change) D168A: Table 9, relative to WT
Outline: as §1

[3] = test system: HCV replicon R155K variant in Huh7 cells; assay: microbe, parasite or virus in culture; format: cell-based, Hepatitis C virus; conditions: for EC50: Hepatitis C virus, Huh-7, read-out: Replicon EC50 (nM) R155K, Table 9; for Replicon EC50 (Fold change) R155K: Table 9, relative to WT
Outline: as §1

[4] = test system: HCV replicon A156T variant in Huh7 cells; assay: microbe, parasite or virus in culture; format: cell-based, Hepatitis C virus; conditions: for EC50: Hepatitis C virus, Huh-7, read-out: Replicon EC50 (nM) A156T, Table 9; for Replicon EC50 (Fold change) A156T: Table 9, relative to WT
Outline: as §1

[5] = target: GT1a R155K NS3/4A protease; format: biochemical, Hepatitis C virus; conditions: fold change in Ki, R155K relative to WT
Method: (§2) For each assay, 2 nM of NS3/4A protease (GT1a, R155K and D168A) was pre-incubated at room temperature for 1 h with increasing concentration of inhibitors in assay buffer (50 mM Tris, 5% glycerol, 10 mM DTT, 0.6 mM LDAO, and 4% dimethyl sulfoxide, pH 7.5). Inhibition assays were performed in non-binding surface 96-well black half-area plates (Corning) in a reaction volume of 60 μL. […] Three independent data sets were collected for each inhibitor with each protease construct. […] Gibbs free energy of binding was calculated using the following equation: ΔG=RTlnKi

[6] = target: GT1a R155K NS3/4A protease (UniProt P27958, R1181K, species not given); format: biochemical, Hepatitis C virus
Method: as §2

[7] = test system: wild-type HCV replicon in Huh7 cells; assay: Cell-based drug susceptibility (replicon) assay, wild-type; conditions: Hepatitis C virus, Huh-7, Table 9; read-out: Replicon EC50 (nM) WT
Outline: as §1

[8] = target: T1, wild-type GT1a NS3/4A protease (UniProt P27958); format: biochemical, Hepatitis C virus
T1 construct: Ki WT; other: wild-type HCV NS3/4A protease
Outline: (§3)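 Enzyme (GT1a wild type or D168A mutant, 2 nM) was preincubated with inhibitor dilutions for 1 h at room temperature in pH 7.5 Tris buffer with glycerol, DTT, LDAO and 4% DMSO.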

[9] = target: T2, GT1a D168A NS3/4A protease (UniProt P27958, D1194A, species not given); format: biochemical, Hepatitis C virus
T2 construct: rows headed: Ki (nM) D168A; Ki D168A; other: D168A variant
Outline: as §3

[10] = target: GT1a D168A NS3/4A protease; format: biochemical, Hepatitis C virus; conditions: fold change in Ki, D168A relative to WT
Outline: as §3

[11] = Hepatitis C virus, Huh-7, read-out: Replicon EC50 (nM) D168V, Table 9
[12] = read-out: Ki (nM) R155K, Table 8, linear inhibitors
[13] = read-out: Ki R155K, R155K variant
[14] = read-out: Ki (nM) WT, Table 8, linear inhibitors
[15] = read-out: Ki WT, wild-type HCV NS3/4A protease
[16] = read-out: Ki (nM) D168A, Table 8, linear inhibitors
[17] = read-out: Ki D168A, D168A variant
[18] = read-out: Replicon EC50 (nM) D168V, Table 9

C=C[C@@H]1C[C@]1(NC(=O)[C@@H]1C[C@@H](Oc2nc3cc(OC)ccc3nc2C)CN1C(=O)[C@@H](NC(=O)OC1CCCC1)C(C)(C)C)C(=O)NS(=O)(=O)C1CC1 [Compound 11b, Cyclopentyl ((S)-1-((2S,4R)-2-(((1R,2S)-1-((cyclopropylsulfonyl)carbamoyl)-2-vinylcyclopropyl)carbamoyl)-4-((7-methoxy-3-methylquinoxalin-2-yl)oxy)pyrrolidin-1-yl)-3,3-dimethyl-1-oxobutan-2-yl)carbamate]
EC50 [1, 11]: 150 nM | Replicon EC50 (Fold change) D168V ([1]; Table 9): (15) fold | EC50 [2]: 101 nM | Replicon EC50 (Fold change) D168A [2]: (10) fold | EC50 [3]: 48 nM | Replicon EC50 (Fold change) R155K [3]: (4.8) fold | EC50 [4]: 164 nM | Replicon EC50 (Fold change) A156T [4]: (16) fold | Ki R155K (fold change) [5]: 1.0 | Ki [6, 12]: 9.6 ± 0.9 nM | Ki [6, 13]: 9.6 ± 0.9 nM | EC50 [7]: 10 nM | Ki [8, 14]: 9.2 ± 0.9 nM | Ki [8, 15]: 9.2 ± 0.9 nM | Ki [9, 16]: 144 ± 23 nM | Ki [9, 17]: 144 ± 23 nM | Ki D168A (fold change) [10]: 16

C=C[C@@H]1C[C@]1(NC(=O)[C@@H]1C[C@@H](Oc2nc3cc(OC)ccc3nc2Cl)CN1C(=O)[C@@H](NC(=O)OC(C)(C)C)C(C)(C)C)C(=O)NS(=O)(=O)C1(C)CC1 [Compound 10d, tert-Butyl ((S)-1-((2S4R)-4-((3-chloro-7-methoxyquinoxalin-2-yl)oxy)-2-(((1R,2SD)-1-(((1-methylcyclopropyl)sulfonyl)carbamoyl)-1-vinylcyclopropyl)carbamoyl)pyrrolidin-1-yl)-3,3-dimethyl-1-oxobutan-2-yl)carbamate]
EC50 [1, 11]: 12 to 38 nM | Replicon EC50 (Fold change) D168V ([1]; Table 9): (1.9) fold | EC50 [1, 18]: 12 nM | Replicon EC50 (Fold change) D168A [2]: (4.8) fold | EC50 [3]: 10 nM | Replicon EC50 (Fold change) R155K [3]: (1.6) fold | EC50 [4]: 100 nM | Replicon EC50 (Fold change) A156T [4]: (16) fold | Ki R155K (fold change) [5]: 0.7 | Ki [6, 12]: 3.8 ± 0.6 nM | Ki [6, 13]: 3.8 ± 0.6 nM | EC50 [7]: 6.3 nM | Ki [8, 14]: 6.1 ± 1.1 nM | Ki [8, 15]: 6.1 ± 1.1 nM | Ki [9, 16]: 119 ± 16 nM | Ki [9, 17]: 119 ± 16 nM | Ki D168A (fold change) [10]: 31

C=C[C@@H]1C[C@]1(NC(=O)[C@@H]1C[C@@H](Oc2nc3cc(OC)ccc3nc2Cl)CN1C(=O)[C@@H](NC(=O)OC1CCCC1)C(C)(C)C)C(=O)NS(=O)(=O)C1(C)CC1 [Compound 12d, Cyclopentyl ((S)-1-((2S,4R)-4-((3-chloro-7-methoxyquinoxalin-2-yl)oxy)-2-(((1R,2S)-1-(((1-methylcyclopropyl)sulfonyl)carbamoyl)-2-vinylcyclopropyl)carbamoyl)pyrrolidin-1-yl)-3,3-dimethyl-1-oxobutan-2-yl)carbamate]
EC50 [1, 11]: 12 to 38 nM | Replicon EC50 (Fold change) D168V ([1]; Table 9): (7.4) fold | EC50 [1, 18]: 23 nM | Replicon EC50 (Fold change) D168A [2]: (8.1) fold | EC50 [3]: 27 nM | Replicon EC50 (Fold change) R155K [3]: (8.7) fold | EC50 [4]: 163 nM | Replicon EC50 (Fold change) A156T [4]: (53) fold | Ki R155K (fold change) [5]: 1.3 | Ki [6, 12]: 5.2 ± 0.8 nM | Ki [6, 13]: 5.2 ± 0.8 nM | EC50 [7]: 3.1 nM | Ki [8, 14]: 3.9 nM | Ki [8, 15]: 3.9 ± 0.7 nM | Ki [9, 16]: 51 ± 6 nM | Ki [9, 17]: 51 ± 6 nM | Ki D168A (fold change) [10]: 13

C=C[C@@H]1C[C@]1(NC(=O)[C@@H]1C[C@@H](Oc2nc3cc(OC)ccc3nc2Cl)CN1C(=O)[C@@H](NC(=O)OC(C)(C)C)C(C)(C)C)C(=O)NS(=O)(=O)C1CC1 [Compound 9d, tert-Butyl ((S)-1-((2S,4R)-4-((3-chloro-7-methoxyquinoxalin-2-yl)oxy)-2-(((1R,2S)-1-((cyclopropylsulfonyl)carbamoyl)-2-vinylcyclopropyl)carbamoyl)pyrrolidin-1-yl)-3,3-dimethyl-1-oxobutan-2-yl)carbamate]
EC50 [1, 11]: 12 to 38 nM | Replicon EC50 (Fold change) D168V ([1]; Table 9): (1.8) fold | EC50 [1, 18]: 12 nM | Replicon EC50 (Fold change) D168A [2]: (5.8) fold | EC50 [3]: 10 nM | Replicon EC50 (Fold change) R155K [3]: (1.5) fold | EC50 [4]: 107 nM | Replicon EC50 (Fold change) A156T [4]: (16) fold | Ki R155K (fold change) [5]: 0.3 | Ki [6, 12]: 2.2 ± 0.4 nM | Ki [6, 13]: 2.2 ± 0.4 nM | EC50 [7]: 6.6 nM | Ki [8, 14]: 7.8 ± 1.1 nM | Ki [8, 15]: 7.8 ± 1.1 nM | Ki [9, 16]: 128 ± 16 nM | Ki [9, 17]: 128 ± 16 nM | Ki D168A (fold change) [10]: 16

C=C[C@@H]1C[C@]1(NC(=O)[C@@H]1C[C@@H](Oc2nc3cc(OC)ccc3nc2C(C)C)CN1C(=O)[C@@H](NC(=O)OC(C)(C)C)C(C)(C)C)C(=O)NS(=O)(=O)C1(C)CC1 [Compound 10c, tert-Butyl ((S)-1-((2S,4R)-4-((3-isopropyl-7-methoxyquinoxalin-2-yl)oxy)-2-(((1R,2S)-1-(((1-methylcyclopropyl)sulfonyl)carbamoyl)-2-vinylcyclopropyl)carbamoyl)pyrrolidin-1-yl)-3,3-dimethyl-1-oxobutan-2-yl)carbamate]
Ki R155K (fold change) [5]: 0.9 | Ki [6, 12]: 27 ± 5.6 nM | Ki [6, 13]: 27 ± 5.6 nM | Ki [8, 14]: 29 ± 9.4 nM | Ki [8, 15]: 29 ± 9.4 nM | Ki [9, 16]: 1180 ± 170 nM | Ki [9, 17]: 1180 ± 170 nM | Ki D168A (fold change) [10]: 41

C=C[C@@H]1C[C@]1(NC(=O)[C@@H]1C[C@@H](Oc2nc3cc(OC)ccc3nc2C(F)(F)F)CN1C(=O)[C@@H](NC(=O)OC(C)(C)C)C(C)(C)C)C(=O)NS(=O)(=O)C1CC1 [Compound 9e, tert-Butyl ((S)-1-((2S,4R)-2-(((1R,2S)-1-((cyclopropylsulfonyl)carbamoyl)-2-vinylcyclopropyl)carbamoyl)-4-((7-methoxy-3-(trifluoromethyl)quinoxalin-2-yl)oxy)pyrrolidin-1-yl)-3,3-dimethyl-1-oxobutan-2-yl)carbamate]
Ki R155K (fold change) [5]: 0.3 | Ki [6, 12]: 24 ± 3.3 nM | Ki [6, 13]: 24 ± 3.3 nM | Ki [8, 14]: 87 ± 18 nM | Ki [8, 15]: 87 ± 18 nM | Ki [9, 16]: 723 ± 80 nM | Ki [9, 17]: 723 ± 80 nM | Ki D168A (fold change) [10]: 8

C=C[C@@H]1C[C@]1(NC(=O)[C@@H]1C[C@@H](Oc2nc3cc(OC)ccc3nc2Cl)CN1C(=O)[C@@H](NC(=O)OC1CCCC1)C(C)(C)C)C(=O)NS(=O)(=O)C1CC1 [Compound 11d, Cyclopentyl ((S)-1-((2S,4R)-4-((3-chloro-7-methoxyquinoxalin-2-yl)oxy)-2-(((1R,2S)-1-((cyclopropylsulfonyl)carbamoyl)-2-vinylcyclopropyl)carbamoyl)pyrrolidin-1-yl)-3,3-dimethyl-1-oxobutan-2-yl)carbamate]
EC50 [1, 11]: 54 nM | Replicon EC50 (Fold change) D168V ([1]; Table 9): (7.3) fold | EC50 [2]: 50 nM | Replicon EC50 (Fold change) D168A [2]: (6.8) fold | EC50 [3]: 40 nM | Replicon EC50 (Fold change) R155K [3]: (5.4) fold | EC50 [4]: 292 nM | Replicon EC50 (Fold change) A156T [4]: (40) fold | Ki R155K (fold change) [5]: 1.1 | Ki [6, 12]: 4.1 ± 0.5 nM | Ki [6, 13]: 4.1 ± 0.5 nM | EC50 [7]: 7.4 nM | Ki [8, 14]: 3.8 nM | Ki [8, 15]: 3.8 ± 0.6 nM | Ki [9, 16]: 99 ± 10 nM | Ki [9, 17]: 99 ± 10 nM | Ki D168A (fold change) [10]: 26

C=C[C@@H]1C[C@]1(NC(=O)[C@@H]1C[C@@H](Oc2nc3cc(OC)ccc3nc2C(F)(F)F)CN1C(=O)[C@@H](NC(=O)OC1CCCC1)C(C)(C)C)C(=O)NS(=O)(=O)C1CC1 [Compound 11e, Cyclopentyl ((S)-1-((2S,4R)-2-(((1R,2S)-1-((cyclopropylsulfonyl)carbamoyl)-2-vinylcyclopropyl)carbamoyl)-4-((7-methoxy-3-(trifluoromethyl)quinoxalin-2-yl)oxy)pyrrolidin-1-yl)-3,3-dimethyl-1-oxobutan-2-yl)carbamate]
Ki R155K (fold change) [5]: 0.8 | Ki [6, 12]: 26 ± 7.7 nM | Ki [6, 13]: 26 ± 7.7 nM | Ki [8, 14]: 34 ± 8.3 nM | Ki [8, 15]: 34 ± 8.3 nM | Ki [9, 16]: 703 ± 63 nM | Ki [9, 17]: 703 ± 63 nM | Ki D168A (fold change) [10]: 21
